Test results as given in ChEMBL document CHEMBL1201862, “PubChem BioAssay data set” (2004).
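Five concentrations, 48 hours, 96-well plates. GI50 is the concentration that inhibits growth by half.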 Active and inactive are the calls of the source. No stated cut-off is given here; in the data, active = GI50 up to about 1.1 µM and inactive = higher.

Assays:
Assay in all cases: inhibition of tumour cell growth, NCI panel, 48 h
IGROV-1 = tested on: IGROV-1
UACC-62 = tested on: UACC-62
MOLT-4 = tested on: MOLT-4
BT-549 = tested on: BT-549
SF-295 = tested on: SF-295
U-251 = tested on: U-251
RXF 393 = tested on: RXF 393
SK-OV-3 = tested on: SK-OV-3
OVCAR-3 = tested on: OVCAR-3
RPMI-8226 = tested on: RPMI-8226
K562 = tested on: K562
ACHN = tested on: ACHN
KM12 = tested on: KM12
OVCAR-5 = tested on: OVCAR-5
NCI-H522 = tested on: NCI-H522
SF-268 = tested on: SF-268
EKVX = tested on: EKVX
HT-29 = tested on: HT-29
COLO 205 = tested on: COLO 205
HCT-116 = tested on: HCT-116
UO-31 = tested on: UO-31
HOP-92 = tested on: HOP-92
DU-145 = tested on: DU-145
A498 = tested on: A498
CCRF-CEM = tested on: CCRF-CEM
HCT-15 = tested on: HCT-15
LOX IMVI = tested on: LOX IMVI
MDA-MB-231 = tested on: MDA-MB-231
SK-MEL-5 = tested on: SK-MEL-5
OVCAR-4 = tested on: OVCAR-4
NCI-H23 = tested on: NCI-H23
NCI-H460 = tested on: NCI-H460
SK-MEL-2 = tested on: SK-MEL-2
TK-10 = tested on: TK-10
MCF7 = tested on: MCF7
HOP-62 = tested on: HOP-62
PC-3 = tested on: PC-3
SN12C = tested on: SN12C
HCC 2998 = tested on: HCC 2998
CAKI-1 = tested on: CAKI-1
HL-60 = tested on: HL-60
NCI-H226 = tested on: NCI-H226
UACC-257 = tested on: UACC-257
Malme-3M = tested on: Malme-3M
786-0 = tested on: 786-0
MDA-N = tested on: MDA-N
M14 = tested on: M14
SNB-75 = tested on: SNB-75
SR = tested on: SR
SNB-19 = tested on: SNB-19
A549 = tested on: A549
NCI/ADR-RES = tested on: NCI/ADR-RES
SW-620 = tested on: SW-620
SF-539 = tested on: SF-539
T47D = tested on: T47D
MDA-MB-435 = tested on: MDA-MB-435
OVCAR-8 = tested on: OVCAR-8
Hs-578T = tested on: Hs-578T
SK-MEL-28 = tested on: SK-MEL-28

Structure (SMILES): CSCCC(NC(=O)Cc1ccc(C(=O)c2ccccc2)cc1)C(=O)N1CCN(CCCCN2c3ccccc3Sc3cc(N=[N+]=[N-])ccc32)CC1 (configuration not stated)
- GI50 (IGROV-1): > 100 µM (inactive)
- GI50 (UACC-62): > 100 µM (inactive)
- GI50 (MOLT-4): > 100 µM (inactive)
- GI50 (BT-549): > 100 µM (inactive)
- GI50 (SF-295): 47.6 µM (inactive)
- GI50 (U-251): > 100 µM (inactive)
- GI50 (RXF 393): 89.9 µM (inactive)
- GI50 (SK-OV-3): > 100 µM (inactive)
- GI50 (OVCAR-3): > 100 µM (inactive)
- GI50 (RPMI-8226): 68.1 µM (inactive)
- GI50 (K562): > 100 µM (inactive)
- GI50 (ACHN): > 100 µM (inactive)
- GI50 (KM12): 20.4 µM (inactive)
- GI50 (OVCAR-5): > 100 µM (inactive)
- GI50 (NCI-H522): 92 µM (inactive)
- GI50 (SF-268): > 100 µM (inactive)
- GI50 (EKVX): > 100 µM (inactive)
- GI50 (HT-29): > 100 µM (inactive)
- GI50 (COLO 205): > 100 µM (inactive)
- GI50 (HCT-116): 65.8 µM (inactive)
- GI50 (UO-31): 34.8 µM (inactive)
- GI50 (HOP-92): > 100 µM (inactive)
- GI50 (DU-145): 47 µM (inactive)
- GI50 (A498): 72.3 µM (inactive)
- GI50 (CCRF-CEM): 49.3 µM (inactive)
- GI50 (HCT-15): > 100 µM
- GI50 (LOX IMVI): > 100 µM (inactive)
- GI50 (MDA-MB-231): > 100 µM (inactive)
- GI50 (SK-MEL-5): 30.2 µM (inactive)
- GI50 (OVCAR-4): 16.5 µM (inactive)
- GI50 (NCI-H23): 27.9 µM (inactive)
- GI50 (NCI-H460): > 100 µM (inactive)
- GI50 (SK-MEL-2): > 100 µM (inactive)
- GI50 (TK-10): > 100 µM (inactive)
- GI50 (MCF7): 73.3 µM (inactive)
- GI50 (HOP-62): > 100 µM (inactive)
- GI50 (PC-3): 65.9 µM (inactive)
- GI50 (SN12C): > 100 µM (inactive)
- GI50 (HCC 2998): > 100 µM (inactive)
- GI50 (CAKI-1): > 100 µM (inactive)
- GI50 (HL-60): 30.6 µM (inactive)
- GI50 (NCI-H226): 78.2 µM (inactive)
- GI50 (UACC-257): > 100 µM (inactive)
- GI50 (Malme-3M): > 100 µM (inactive)
- GI50 (786-0): > 100 µM (inactive)

Structure (SMILES): CCc1cc2c(cc1CCCC(=O)O)CC1(Cc3ccc(C(=O)O)cc3C1)C2 (configuration not stated)
- GI50 (IGROV-1): > 100 µM (inactive)
- GI50 (MDA-N): > 100 µM (inactive)
- GI50 (MOLT-4): > 100 µM (inactive)
- GI50 (SF-295): > 100 µM (inactive)
- GI50 (U-251): > 100 µM (inactive)
- GI50 (RXF 393): > 100 µM (inactive)
- GI50 (SK-OV-3): > 100 µM (inactive)
- GI50 (M14): > 100 µM (inactive)
- GI50 (OVCAR-3): > 100 µM (inactive)
- GI50 (RPMI-8226): > 100 µM (inactive)
- GI50 (K562): > 100 µM (inactive)
- GI50 (ACHN): > 100 µM (inactive)
- GI50 (KM12): > 100 µM (inactive)
- GI50 (SNB-75): > 100 µM (inactive)
- GI50 (SR): > 100 µM (inactive)
- GI50 (OVCAR-5): > 100 µM (inactive)
- GI50 (NCI-H522): > 100 µM (inactive)
- GI50 (SF-268): > 100 µM (inactive)
- GI50 (SNB-19): > 100 µM (inactive)
- GI50 (EKVX): > 100 µM (inactive)
- GI50 (HT-29): > 100 µM (inactive)
- GI50 (COLO 205): > 100 µM (inactive)
- GI50 (HCT-116): > 100 µM (inactive)
- GI50 (UO-31): > 100 µM (inactive)
- GI50 (A549): > 100 µM (inactive)
- GI50 (HOP-92): > 100 µM (inactive)
- GI50 (DU-145): > 100 µM (inactive)
- GI50 (NCI/ADR-RES): > 100 µM (inactive)
- GI50 (A498): > 100 µM (inactive)
- GI50 (CCRF-CEM): > 100 µM (inactive)
- GI50 (HCT-15): > 100 µM
- GI50 (SW-620): > 100 µM (inactive)
- GI50 (LOX IMVI): > 100 µM (inactive)
- GI50 (MDA-MB-231): > 100 µM (inactive)
- GI50 (SK-MEL-5): > 100 µM (inactive)
- GI50 (OVCAR-4): > 100 µM (inactive)
- GI50 (NCI-H23): > 100 µM (inactive)
- GI50 (NCI-H460): > 100 µM (inactive)
- GI50 (SF-539): > 100 µM (inactive)
- GI50 (SK-MEL-2): > 100 µM (inactive)
- GI50 (TK-10): > 100 µM (inactive)
- GI50 (T47D): > 100 µM (inactive)
- GI50 (MCF7): > 100 µM (inactive)
- GI50 (HOP-62): > 100 µM (inactive)
- GI50 (MDA-MB-435): > 100 µM (inactive)
- GI50 (PC-3): > 100 µM (inactive)
- GI50 (OVCAR-8): > 100 µM (inactive)
- GI50 (SN12C): > 100 µM (inactive)
- GI50 (Hs-578T): > 100 µM (inactive)
- GI50 (HCC 2998): > 100 µM (inactive)
- GI50 (CAKI-1): > 100 µM (inactive)
- GI50 (HL-60): > 100 µM (inactive)
- GI50 (SK-MEL-28): > 100 µM (inactive)
- GI50 (NCI-H226): > 100 µM (inactive)
- GI50 (UACC-257): > 100 µM (inactive)
- GI50 (Malme-3M): > 100 µM (inactive)
- GI50 (786-0): > 100 µM (inactive)

Structure (SMILES): Cc1ccc(Nc2nc3c(=O)n(C)c(=O)n(C)c3nc2Nc2ccc(C)cc2)cc1
- GI50 (IGROV-1): 15 µM (inactive)
- GI50 (MDA-N): 11.3 µM (inactive)
- GI50 (UACC-62): 12.3 µM (inactive)
- GI50 (MOLT-4): 14.8 µM (inactive)
- GI50 (SF-295): 20.8 µM (inactive)
- GI50 (U-251): 16.3 µM (inactive)
- GI50 (RXF 393): 10.3 µM (inactive)
- GI50 (SK-OV-3): 21.9 µM (inactive)
- GI50 (RPMI-8226): 7.62 µM (inactive)
- GI50 (K562): 6.56 µM (inactive)
- GI50 (ACHN): 3.46 µM (inactive)
- GI50 (KM12): 16.4 µM (inactive)
- GI50 (SNB-75): 15.4 µM (inactive)
- GI50 (SR): 5.38 µM (inactive)
- GI50 (OVCAR-5): 16.4 µM (inactive)
- GI50 (NCI-H522): 1.15 µM (inactive)
- GI50 (SF-268): 16 µM (inactive)
- GI50 (SNB-19): 31.3 µM (inactive)
- GI50 (EKVX): 16 µM (inactive)
- GI50 (HT-29): 10.4 µM (inactive)
- GI50 (COLO 205): 4.67 µM (inactive)
- GI50 (HCT-116): 9.27 µM (inactive)
- GI50 (UO-31): 12.1 µM (inactive)
- GI50 (A549): 19.9 µM (inactive)
- GI50 (HOP-92): 11.4 µM (inactive)
- GI50 (DU-145): 32.4 µM (inactive)
- GI50 (NCI/ADR-RES): 17.2 µM (inactive)
- GI50 (A498): 16.5 µM (inactive)
- GI50 (CCRF-CEM): 2.3 µM (inactive)
- GI50 (HCT-15): 3.32 µM
- GI50 (SW-620): 1.74 µM (inactive)
- GI50 (LOX IMVI): 10.1 µM (inactive)
- GI50 (MDA-MB-231): 13.7 µM (inactive)
- GI50 (SK-MEL-5): 16.4 µM (inactive)
- GI50 (OVCAR-4): 11.1 µM (inactive)
- GI50 (NCI-H23): 15.9 µM (inactive)
- GI50 (NCI-H460): 28.8 µM (inactive)
- GI50 (SF-539): 13.5 µM (inactive)
- GI50 (SK-MEL-2): 17.8 µM (inactive)
- GI50 (TK-10): 16.4 µM (inactive)
- GI50 (T47D): 15.5 µM (inactive)
- GI50 (HOP-62): 18.9 µM (inactive)
- GI50 (MDA-MB-435): 12.1 µM (inactive)
- GI50 (PC-3): 14.7 µM (inactive)
- GI50 (OVCAR-8): 13.6 µM (inactive)
- GI50 (SN12C): 15.5 µM (inactive)
- GI50 (Hs-578T): 25.8 µM (inactive)
- GI50 (HCC 2998): 17.5 µM (inactive)
- GI50 (CAKI-1): 16.4 µM (inactive)
- GI50 (HL-60): 9.66 µM (inactive)
- GI50 (SK-MEL-28): 16.7 µM (inactive)
- GI50 (NCI-H226): 28.8 µM (inactive)
- GI50 (UACC-257): 15.7 µM (inactive)
- GI50 (Malme-3M): 14.9 µM (inactive)
- GI50 (786-0): 6.04 µM (inactive)
